Test results published in the supplement of paper PMC6045584.
± gives the standard deviation of the averaged measurements.

Compound: Cc1nc(Nc2n[nH]c3c2CN(C(=O)N[C@H](CN(C)C)c2ccccc2)C3(C)C)c2sccc2n1
Test: surviving fraction relative to DMSO-only wells; higher = less growth inhibition
Details: 50 nM; exposure time: 5 days
Outline: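 Log-phase tumour cell lines were seeded at 250–500 cells per well in 384-well plates. After 24 hours they were exposed continuously for five days to inhibitors at 0.5, 1, 5, 10, 50, 100, 500 and 1000 nM. Viability was read by CellTiter-Glo luminescence after 10 minutes at room temperature, and surviving fraction is luminescence normalised to the median of DMSO-only wells. Each line was screened three times and kept only if replicate Pearson r >0.7 and median Z' >0.3.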

Row | Test System | surviving fraction
1 | CASKI CERVIX | 0.13 ± 0.013
2 | CHLA90 AUTONOMIC GANGLIA | 0.38 ± 0.036
3 | CME SYNOVIAL | 0.287 ± 0.018
4 | COLO320DM LARGE INTESTINE | 0.793 ± 0.055
5 | DU4475 BREAST | 0.038 ± 0.0095
6 | H23 LUNG | 0.26 ± 0.0067
7 | HCC38 BREAST | 0.182 ± 0.02
8 | HCC70 BREAST | 0.0497 ± 0.0061
9 | HCC78 LUNG | 0.263 ± 0.027
10 | HCC202 BREAST | 0.58 ± 0.028
11 | HCC1806 BREAST | 0.0497 ± 0.0047
12 | HCC1954 BREAST | 0.487 ± 0.023
13 | HCT15 LARGE INTESTINE | 0.869 ± 0.061
14 | HELA CERVIX | 0.4922 ± 0.0018
15 | HMLE3 BREAST | 0.0967 ± 0.012
16 | HMT3552 BREAST | 0.219
17 | HOS BONE | 0.234 ± 0.015

Row | Test System | surviving fraction
18 | HOSMNG BONE | 0.821 ± 0.042
19 | HS57T BREAST | 0.287 ± 0.018
20 | HS578T BREAST | 0.374 ± 0.056
21 | HSSYII SYNOVIAL | 0.216 ± 0.007
22 | HT1080 SOFT TISSUE | 0.194 ± 0.0046
23 | HU09 BONE | 0.381 ± 0.046
24 | JIMT1 BREAST | 0.559 ± 0.041
25 | JURKAT HAEMATOPOIETIC AND LYMPHOID TISSUE | 0.0877 ± 0.004
26 | KPD BONE | 0.259 ± 0.021
27 | LM7 BONE | 0.386 ± 0.033
28 | MCF7 BREAST | 0.547 ± 0.01
29 | MDAMB134 BREAST | 1.04 ± 0.044
30 | MDAMB157 BREAST | 0.405 ± 0.055
31 | MDAMB231 BREAST | 0.474 ± 0.0092
32 | MDAMB361 BREAST | 0.837 ± 0.016
33 | MDAMB436 BREAST | 0.718 ± 0.016

Same assay, conditions: 100 nM; exposure time: 5 days

Row | Test System | surviving fraction
34 | 22RV1 PROSTATE | 0.313 ± 0.058
35 | 93VU HEADNECK | 0.195 ± 0.0078
36 | 143B BONE | 0.259 ± 0.016
37 | A549 LUNG | 0.311 ± 0.022
38 | ASKA SYNOVIAL | 1.28 ± 0.018
39 | BT20 BREAST | 0.631 ± 0.12
40 | BT549 BREAST | 0.092 ± 0.019
41 | CADOES1 SOFT TISSUE | 0.721 ± 0.093
42 | CAL51 BREAST | 0.0562 ± 0.0013
43 | CAL120 BREAST | 0.223 ± 0.0029
44 | CASKI CERVIX | 0.0993 ± 0.012
45 | CHLA90 AUTONOMIC GANGLIA | 0.331 ± 0.0082
46 | CME SYNOVIAL | 1.34 ± 0.057
47 | COLO320DM LARGE INTESTINE | 0.745 ± 0.019
48 | DU4475 BREAST | 0.029 ± 0.0056
49 | H23 LUNG | 0.23 ± 0.013
50 | HCC38 BREAST | 0.186 ± 0.034
51 | HCC70 BREAST | 0.038 ± 0.003
52 | HCC78 LUNG | 0.231 ± 0.03
53 | HCC202 BREAST | 0.501 ± 0.12
54 | HCC1806 BREAST | 0.0377 ± 0.0055
55 | HCC1954 BREAST | 0.493 ± 0.018

Row | Test System | surviving fraction
56 | HCT15 LARGE INTESTINE | 1.02 ± 0.036
57 | HELA CERVIX | 0.478 ± 0.0081
58 | HMLE3 BREAST | 0.092 ± 0.0036
59 | HMT3552 BREAST | 0.212
60 | HOS BONE | 0.233 ± 0.0055
61 | HOSMNG BONE | 0.622 ± 0.029
62 | HS57T BREAST | 0.255 ± 0.0075
63 | HS578T BREAST | 0.37 ± 0.049
64 | HSSYII SYNOVIAL | 0.215 ± 0.018
65 | HT1080 SOFT TISSUE | 0.171 ± 0.0076
66 | HU09 BONE | 0.339 ± 0.028
67 | JIMT1 BREAST | 0.51 ± 0.041
68 | JURKAT HAEMATOPOIETIC AND LYMPHOID TISSUE | 0.086 ± 0.001
69 | KPD BONE | 0.224 ± 0.027
70 | LM7 BONE | 0.327 ± 0.036
71 | MCF7 BREAST | 0.546 ± 0.022
72 | MDAMB134 BREAST | 1.02 ± 0.017
73 | MDAMB157 BREAST | 0.29 ± 0.048
74 | MDAMB231 BREAST | 0.433 ± 0.022
75 | MDAMB361 BREAST | 0.796 ± 0.054
76 | MDAMB436 BREAST | 0.61 ± 0.061

Same assay, conditions: 500 nM; exposure time: 5 days

Row | Test System | surviving fraction
77 | 22RV1 PROSTATE | 0.291 ± 0.058
78 | 93VU HEADNECK | 0.0973 ± 0.013
79 | 143B BONE | 0.158 ± 0.0042
80 | A549 LUNG | 0.2537 ± 0.0015
81 | ASKA SYNOVIAL | 0.3113 ± 0.0015
82 | BT20 BREAST | 0.614 ± 0.076
83 | BT549 BREAST | 0.0593 ± 0.012
84 | CADOES1 SOFT TISSUE | 0.401 ± 0.014
85 | CAL51 BREAST | 0.0417 ± 0.0018
86 | CAL120 BREAST | 0.24 ± 0.028
87 | CASKI CERVIX | 0.0227 ± 0.0031
88 | CHLA90 AUTONOMIC GANGLIA | 0.233 ± 0.018
89 | CME SYNOVIAL | 0.325 ± 0.025
90 | COLO320DM LARGE INTESTINE | 0.333 ± 0.011
91 | DU4475 BREAST | 0.0257 ± 0.0045
92 | H23 LUNG | 0.216 ± 0.0089
93 | HCC38 BREAST | 0.178 ± 0.034
94 | HCC70 BREAST | 0.032 ± 0.0089
95 | HCC78 LUNG | 0.203 ± 0.036
96 | HCC202 BREAST | 0.226 ± 0.038
97 | HCC1806 BREAST | 0.024 ± 0.001
98 | HCC1954 BREAST | 0.428 ± 0.028

Row | Test System | surviving fraction
99 | HCT15 LARGE INTESTINE | 0.172 ± 0.013
100 | HELA CERVIX | 0.406 ± 0.016
101 | HMLE3 BREAST | 0.066 ± 0.0082
102 | HMT3552 BREAST | 0.17
103 | HOS BONE | 0.194 ± 0.0038
104 | HOSMNG BONE | 0.399 ± 0.024
105 | HS57T BREAST | 0.151 ± 0.02
106 | HS578T BREAST | 0.186 ± 0.029
107 | HSSYII SYNOVIAL | 0.0975 ± 0.0058
108 | HT1080 SOFT TISSUE | 0.111 ± 0.015
109 | HU09 BONE | 0.174 ± 0.023
110 | JIMT1 BREAST | 0.398 ± 0.029
111 | JURKAT HAEMATOPOIETIC AND LYMPHOID TISSUE | 0.06 ± 0.001
112 | KPD BONE | 0.0937 ± 0.01
113 | LM7 BONE | 0.115 ± 0.006
114 | MCF7 BREAST | 0.395 ± 0.019
115 | MDAMB134 BREAST | 1.13 ± 0.035
116 | MDAMB157 BREAST | 0.159 ± 0.013
117 | MDAMB231 BREAST | 0.205 ± 0.0056
118 | MDAMB361 BREAST | 0.5827 ± 0.004
119 | MDAMB436 BREAST | 0.507 ± 0.025

Same assay, conditions: 1000 nM; exposure time: 5 days

Row | Test System | surviving fraction
120 | 22RV1 PROSTATE | 0.27 ± 0.025
121 | 93VU HEADNECK | 0.0723 ± 0.0095
122 | 143B BONE | 0.0825 ± 0.0035
123 | A549 LUNG | 0.208 ± 0.011
124 | ASKA SYNOVIAL | 1.08 ± 0.051
125 | BT20 BREAST | 0.542 ± 0.062
126 | BT549 BREAST | 0.052 ± 0.02
127 | CADOES1 SOFT TISSUE | 0.291 ± 0.026
128 | CAL51 BREAST | 0.0317 ± 0.0014
129 | CAL120 BREAST | 0.151 ± 0.018
130 | CASKI CERVIX | 0.0183 ± 0.00058
131 | CHLA90 AUTONOMIC GANGLIA | 0.2 ± 0.011
132 | CME SYNOVIAL | 1.31 ± 0.06
133 | COLO320DM LARGE INTESTINE | 0.388 ± 0.015
134 | DU4475 BREAST | 0.0277 ± 0.006
135 | H23 LUNG | 0.206 ± 0.023
136 | HCC38 BREAST | 0.0973 ± 0.011
137 | HCC70 BREAST | 0.0307 ± 0.0061
138 | HCC78 LUNG | 0.21 ± 0.041
139 | HCC202 BREAST | 0.14 ± 0.049
140 | HCC1806 BREAST | 0.0237 ± 0.00058
141 | HCC1954 BREAST | 0.253 ± 0.035

Row | Test System | surviving fraction
142 | HCT15 LARGE INTESTINE | 0.428 ± 0.023
143 | HELA CERVIX | 0.341 ± 0.026
144 | HMLE3 BREAST | 0.055 ± 0.002
145 | HMT3552 BREAST | 0.136
146 | HOS BONE | 0.112 ± 0.0079
147 | HOSMNG BONE | 0.253 ± 0.018
148 | HS57T BREAST | 0.0643 ± 0.0085
149 | HS578T BREAST | 0.095 ± 0.013
150 | HSSYII SYNOVIAL | 0.138 ± 0.0053
151 | HT1080 SOFT TISSUE | 0.087 ± 0.0078
152 | HU09 BONE | 0.111 ± 0.007
153 | JIMT1 BREAST | 0.323 ± 0.0049
154 | JURKAT HAEMATOPOIETIC AND LYMPHOID TISSUE | 0.051
155 | KPD BONE | 0.058 ± 0.0053
156 | LM7 BONE | 0.0547 ± 0.0084
157 | MCF7 BREAST | 0.486 ± 0.0057
158 | MDAMB134 BREAST | 0.961 ± 0.2
159 | MDAMB157 BREAST | 0.119 ± 0.021
160 | MDAMB231 BREAST | 0.0829 ± 0.0099
161 | MDAMB361 BREAST | 0.238 ± 0.0081
162 | MDAMB436 BREAST | 0.432 ± 0.03
